Assay results from patent US5973188A (priority 1993, dated 1999).

System: ADP-induced aggregation of platelets in human PRP
Assay: animal or person
Details: Platelet, po, read-out: ID50 (dose administered orally that inhibits by 50% the ADP-induced ex vivo aggregation of platelets in human PRP)

**Q.** How did the ED50 turn out when CCOC(=O)N=C(N)c1ccc(C(=O)N[C@@H](Cc2ccc(OC(=O)OCC)cc2)C(=O)N2CCC(OCC(=O)OC(C)C)CC2)cc1 (mixture of isomers) [Example 49, Isopropyl (E/Z)-(S)-1-[2-[4-(amino-ethoxycarbonylimino-methyl)-benzoylamino]-3-(4-ethoxycarbonyloxy-phenyl)-propionyl]-piperidin-4-yloxyacetate] was run?
**A.** Its ED50 is 1.2 mg/kg.

**Q.** How did the ED50 turn out when CCOC(=O)N=C(N)c1ccc(C(=O)N[C@@H](Cc2ccc(OC(=O)c3ccccc3N)cc2)C(=O)N2CCC(OCC(=O)OC(C)C)CC2)cc1 (mixture of isomers) [Example 50, (E/Z)-(S)-4-[2-[4-(amino-ethoxycarbonylimino-methyl)-benzoylamino]-3-(4-isopropoxy-carbonylmethoxy-piperidin-1-yl)-3-oxo-propyl]-phenyl 2-amino-benzoate] was run?
**A.** Its ED50 is 1.3 mg/kg.

**Q.** With CCOC(=O)N=C(N)c1ccc(C(=O)N[C@@H](Cc2ccc(OC(=O)c3ccco3)cc2)C(=O)N2CCC(OCC(=O)OC(C)C)CC2)cc1 (mixture of isomers) [Example 51, (E/Z)-(S)-4-[2-[4-(amino-ethoxycarbonylimino-methyl)-benzoylamino]-3-(4-isopropoxy-carbonylmethoxy-piperidin-1-yl)-3-oxo-propyl]-phenyl furan-2-carboxylate] as the molecule, how does the ED50 read?
**A.** The ED50 was 3.9 mg/kg.

**Q.** How did the ED50 turn out when CCOC(=O)N=C(N)c1ccc(C(=O)N[C@@H](Cc2ccc(OC(=O)c3ccccc3OC(C)=O)cc2)C(=O)N2CCC(OCC(=O)OC(C)C)CC2)cc1 (mixture of isomers) [Example 53, (E/Z)-(S)-4-[2-[4-(amino-ethoxycarbonylimino-methyl)-benzoylamino]-3-(4-isopropoxy-carbonylmethoxy-piperidin-1-yl)-3-oxo-propyl]-phenyl 2-acetoxy-benzoate] was run?
**A.** Its ED50 is 1.5 mg/kg.

**Q.** Which ED50 does the source give for CCOC(=O)N=C(N)c1ccc(C(=O)N[C@@H](C)C(=O)N2CCC(OCC(=O)OC(C)C)CC2)cc1 (mixture of isomers) [Example 60, isopropyl (E/Z)-(S)-1-[2-[4-(amino-ethoxycarbonylimino-methyl)-benzoylamino]-propionyl]-piperidin-4-yloxyacetate] here?
**A.** Its ED50 is 0.3 mg/kg.

**Q.** How did the ED50 turn out when CC(C)OC(=O)COC1CCN(C(=O)[C@H](C)NC(=O)c2ccc(C(N)=NO)cc2)CC1 (mixture of isomers) [Example 76, isopropyl (E/Z)-(S)-1-[2-[4-(amino-hydroxyimino-methyl)-benzoylamino]-propionyl]-piperidin-4-yloxyacetate] was run?
**A.** Its ED50 is 0.2 mg/kg.

**Q.** Which ED50 does the source give for CCOC(=O)COc1ccc(C(=O)C(CSC)NC(=O)c2ccc(C(=N)NC(=O)OCC)cc2)cc1 (racemic) [Example 27, ethyl (R,S)-4-[2-[4-(ethoxycarbonylamino-imino-methyl)-benzoylamino]-3-methylsulphanyl-propionyl]-phenoxyacetate] here?
**A.** The ED50 was 4.3 mg/kg.

**Q.** With CCOC(=O)COc1ccc(C(=O)C(C)NC(=O)c2ccc(C(N)=NO)cc2)cc1 (racemic) [Example 32, ethyl (Z)-(R,S)-4-[2-[4-[amino-hydroxyimino-methyl]-benzoylamino]-propionyl]-phenoxyacetate] as the molecule, how does the ED50 read?
**A.** The ED50 was 0.2 mg/kg.

**Q.** How did the ED50 turn out when CCOC(=O)COc1ccc(C(=O)C(C)NC(=O)c2ccc(C(N)=NOC(=O)OCC)cc2)cc1 (racemic) [Example 35, ethyl (Z)-(R,S)-4-[2-[4-[amino-ethoxycarbonyloximino-methyl]-benzoylamino]-propionyl]-phenoxyacetate] was run?
**A.** Its ED50 is 0.5 mg/kg.

**Q.** CC(C)COC(=O)NC(=N)c1ccc(C(=O)CC(C)C(=O)N2CCC(OCC(=O)OC(C)C)CC2)cc1 (racemic) [Example 85, isopropyl (RS)-[1-[4-[4-(Isobutoxycarbonylamino-imino-methyl)-phenyl]-2-methyl-4-oxo-butyryl]-piperidin-4-yloxy]-acetate] was tested. Which ED50 did it give?
**A.** The ED50 was 0.4 mg/kg.

**Q.** Which ED50 does the source give for C[C@H](NC(=O)c1ccc(C(=N)N)cc1)C(=O)c1ccc(OCC(=O)OCC2CC2)cc1 [Example 3, cyclopropylmethyl (S)-4-[2-[4-(amino-imino-methyl)-benzoylamino]-propionyl]-phenoxyacetate] here?
**A.** The ED50 was 2.7 mg/kg.

**Q.** For C[C@H](NC(=O)c1ccc(C(=N)N)cc1)C(=O)c1ccc(OCC(=O)OC2CCCCC2)cc1 [Example 4, cyclohexyl (S)-4-[2-[4-(amino-imino-methyl)-benzoylamino]-propionyl]-phenoxyacetate], which ED50 is on record?
**A.** The ED50 was 2.1 mg/kg.

**Q.** With CCOC(=O)COc1ccc(C(=O)[C@H](CO)NC(=O)c2ccc(C(=N)N)cc2)cc1 [Example 9, ethyl (S)-4-[2-[4-(amino-imino-methyl)-benzoylamino]-3-hydroxy-propionyl]-phenoxyacetate] as the molecule, how does the ED50 read?
**A.** Its ED50 is 1.4 mg/kg.

**Q.** How did the ED50 turn out when COc1ccc(C[C@H](NC(=O)c2ccc(C(=N)N)cc2)C(=O)c2ccc(OCC(=O)O)cc2)cc1 [Example 11, (S)-4-[2-[4-(amino-imino-methyl)-benzoylamino]-3-(4-methoxy-phenyl)-propionyl]-phenoxyacetic acid] was run?
**A.** Its ED50 is 3.1 mg/kg.

**Q.** CCOC(=O)COc1ccc(C(=O)[C@@H](NC(=O)c2ccc(C(=N)N)cc2)[C@@H](C)O)cc1 [Example 20, ethyl (2S,3R)-4-[2-[4-(amino-imino-methyl)-benzoylamino]-3-hydroxy-butyryl]-phenoxyacetate] was tested. Which ED50 did it give?
**A.** Its ED50 is 2.4 mg/kg.

**Q.** For COCCOC(=O)COc1ccc(C(=O)[C@H](C)NC(=O)c2ccc(C(=N)N)cc2)cc1 [Example 22, 2-methoxy-ethyl (S)-4-[2-[4-(amino-imino-methyl)-benzoylamino]-propionyl]-phenoxyacetate], which ED50 is on record?
**A.** The ED50 was 1.8 mg/kg.

**Q.** With CCOC(=O)COc1ccc(C(=O)[C@H](COC(C)=O)NC(=O)c2ccc(C(=N)N)cc2)cc1 [Example 24, ethyl (S)-4-[2-[4-(amino-imino-methyl)-benzoylamino]-3-acetoxy-propionyl]-phenoxy-acetate] as the molecule, how does the ED50 read?
**A.** Its ED50 is 2.3 mg/kg.

**Q.** With CCOC(=O)COc1ccc(C(=O)[C@H](C)NC(=O)c2ccc(C(=N)NC(=O)OCCOC)cc2)cc1 [Example 28, ethyl (S)-4-[2-[4-[imino-2-(methoxy-ethoxycarbonylamino)-methyl]-benzoylamino]-propionyl]-phenoxyacetate] as the molecule, how does the ED50 read?
**A.** Its ED50 is 0.3 mg/kg.

**Q.** How did the ED50 turn out when CCOC(=O)COc1ccc(C(=O)[C@H](C)NC(=O)COC2CCNCC2)cc1 [Example 29, ethyl (S)-4-(2-piperidin-4-yloxyacetylamino-propionyl)-phenoxyacetate] was run?
**A.** Its ED50 is 1 mg/kg.

**Q.** With CCOC(=O)NC(=N)c1ccc(C(=O)N[C@@H](C)C(=O)c2ccc(OCC(=O)OC3CCOCC3)cc2)cc1 [Example 33, tetrahydropyran-4-yl (S)-4-[2-[4-(ethoxycarbonylamino-imino-methyl)-benzoylamino]-propionyl]-phenoxyacetate] as the molecule, how does the ED50 read?
**A.** The ED50 was 0.6 mg/kg.

**Q.** How did the ED50 turn out when CCOC(=O)COc1ccc(C(=O)[C@H](C)NC(=O)c2ccc(C(=N)NC(=O)Oc3ccccc3)cc2)cc1 [Example 36, ethyl (S)-4-[2-[4-(imino-phenoxycarbonylamino-methyl)-benzoylamino]-propionyl]-phenoxyacetate] was run?
**A.** Its ED50 is 0.5 mg/kg.

**Q.** Which ED50 does the source give for CCOC(=O)COc1ccc(C(=O)[C@H](C)NC(=O)c2ccc(C(=N)NC(=O)OC3CCOCC3)cc2)cc1 [Example 38, ethyl (S)-4-[2-[4-[imino-(tetrahydro-pyran-4-yloxy-carbonylamino)-methyl]-benzoylamino]-propionyl]-phenoxyacetate] here?
**A.** The ED50 was 2.9 mg/kg.

**Q.** For COCCOC(=O)COc1ccc(C(=O)[C@H](C)NC(=O)c2ccc(C(=N)NC(=O)OCCOC)cc2)cc1 [Example 40, 2-methoxy-ethyl (S)-^4-[2-[4-[imino-(2-methoxy-ethoxy-carbonylamino)-methyl]-benzoylamino]-propionyl]-phenoxyacetate], which ED50 is on record?
**A.** The ED50 was 0.6 mg/kg.

**Q.** Which ED50 does the source give for CCOC(=O)COc1ccc(C(=O)[C@H](C)NC(=O)c2ccc(/C(N)=N/O)cc2)cc1 [Example 41, ethyl (Z)-(S)-4-[2-[4-(amino-hydroxyimino-methyl)-benzoylamino]-propionyl]-phenoxyacetate] here?
**A.** Its ED50 is 0.2 mg/kg.

**Q.** With C[C@H](NC(=O)c1ccc(C(=N)N)cn1)C(=O)N1CCC(OCC(=O)OC2CCOCC2)CC1 [Example 63, tetrahydropyran-4-yl (S)-1-[2-(5-amino-imino-methyl-pyridin-2-ylcarbonylamino)-propionyl]-piperidin-4-yloxy-acetate] as the molecule, how does the ED50 read?
**A.** Its ED50 is 1.1 mg/kg.

**Q.** For COc1ccc(C[C@H](NC(=O)c2ccc(CN)cn2)C(=O)N2CCC(OCC(=O)OC(C)C)CC2)cc1 [Example 72, isopropyl (S)-1-[2-(5-aminomethyl-pyridin-2-ylcarbonylamino)-3-(4-methoxy-phenyl)-propionyl]-piperidin-4-yloxyacetate], which ED50 is on record?
**A.** The ED50 was 2.7 mg/kg.

**Q.** For CCOC(=O)NC(=N)c1ccc(C(=O)CCC(=O)N2CCC(OCC(=O)OC(C)C)CC2)cc1 [Example 80, isopropyl [1-[4-[4-(ethoxycarbonylamino-imino-methyl)-phenyl]-4-oxo-butyryl]-piperidin-4-yloxy]-acetate], which ED50 is on record?
**A.** Its ED50 is 0.7 mg/kg.
